# Source: patent publication US20060003410A1, “Prostaglandin reductase” (priority 2004, published 2006)
# Assays:
# [1] = molecular target: T1, recombinant mouse PGR-2 protein (Mus musculus, UniProt Q8VDQ1); assay: Substrate specificity of PGR-2 (NADPH consumption, absorbance at 490 nm); type: biochemical; conditions: 10 μg recombinant mouse PGR-2, 0.5 mM NADPH, substrate replacing 15-keto PGE2, 37° C., 10 minutes
# T1 construct: The coding region of PGR-2 open reading frame was then subcloned to the expression vector pCMV-Tag2B; GST (N); made in house; host or cells: E. coli (pGEX-4T-3 vector)
# T1 sequence (Q8VDQ1 whole entry): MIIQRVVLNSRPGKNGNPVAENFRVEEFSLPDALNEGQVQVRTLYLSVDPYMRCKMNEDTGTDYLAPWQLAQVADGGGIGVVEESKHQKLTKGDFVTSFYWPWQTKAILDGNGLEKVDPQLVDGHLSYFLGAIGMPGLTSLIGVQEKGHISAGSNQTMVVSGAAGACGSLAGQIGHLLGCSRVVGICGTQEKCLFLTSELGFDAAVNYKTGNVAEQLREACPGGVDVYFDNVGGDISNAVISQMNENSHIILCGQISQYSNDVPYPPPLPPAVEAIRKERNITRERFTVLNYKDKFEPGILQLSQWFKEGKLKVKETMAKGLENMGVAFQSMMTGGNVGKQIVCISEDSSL
# Protocol: (§1) Mouse PGR-2 was recombinantly expressed in E.coli as a GST fusion protein following standard procedures. The recombinant PGR-2 protein thus obtained was used to determine substrate specificity and enzymatic kinetics.
# (§2) Enzymatic activity was determined as follows. 10 μg of the recombinant mouse PGR-2 protein was incubated at 37° C. in a reaction buffer containing 0.1M Tris-HCl (pH7.4), 0.5 mM NADPH, and 0.57 mM 15-keto PGE2. The reaction was conducted at 37° C. in the dark for 10 minutes and terminated by adding 700 μl of a buffer which contained 50 mM potassium hydrogen phthalate, pH 3.0, and 1% Tween 20. 200 μl of a color development reagent, which contained 790 μM indonitrotetrazolium chloride, 60 μM phenazene methosulfate, and 1% Tween 20, was added to oxidize any unreacted NADPH. Absorbance at 490 nm was measured by an ELISA plate reader. A standard curve was generated using reaction buffers containing serially diluted amounts of NADPH.
# Substrate specificity of PGR-2 was determined using the just-described procedure, except that 15-keto PGE2 was replaced with each of six prostaglandin substrates, each of three downstream metabolites, or leukotriene B4.
# [2] = test system: endogenous PPAR; assay: Reporter gene assay of endogenous PPAR activity in differentiating 3T3-L1 cells; type: cell-based, mouse; conditions: 3T3-L1 cells induced to differentiate for two days, transfected with a reporter gene
# Protocol: (§3) The effect of prostaglandin on PPAR-gamma activity in adipocytes was investigated. After treatment with a medium that induces cell differentiation, 3T3-L1 cells were treated from day 2 to 4 during adipogenesis with 14 μM 15-keto PGE2, 13,14-dihydro-15-keto PGE2 , 15-keto PGF2α, 13,14-dihydro-15-keto PGF2α, or 4.5 μm of BRL49653, a PPAR-gamma agonist. See Forman et al., Cell (1995) 83:803-812. At day 6, aggregates of lipid droplets were stained with oil-red O for observation. […] After being induced to differentiate for two days, the 3T3-L1 cells were transfected with a reporter gene.
# [3] = test system: 3T3-L1 cells; assay: Adipogenesis in 3T3-L1 cells, lipid droplets stained with oil-red O; type: cell-based, mouse; conditions: 14 μM, treated day 2 to 4 during adipogenesis, stained at day 6
# Protocol: as §3
# [4] = molecular target: T2, PPAR-alpha (Homo sapiens, UniProt Q07869); assay: Luciferase reporter with PPAR-alpha ligand-binding domain fused to yeast GAL4 DNA-binding domain in 3T3-L1 cells; type: cell-based; conditions: compared with PPAR-gamma
# T2 construct: expressed in transfected cells; host or cells: 3T3-L1 cells
# T2 sequence (Q07869 239-466 limits assumed): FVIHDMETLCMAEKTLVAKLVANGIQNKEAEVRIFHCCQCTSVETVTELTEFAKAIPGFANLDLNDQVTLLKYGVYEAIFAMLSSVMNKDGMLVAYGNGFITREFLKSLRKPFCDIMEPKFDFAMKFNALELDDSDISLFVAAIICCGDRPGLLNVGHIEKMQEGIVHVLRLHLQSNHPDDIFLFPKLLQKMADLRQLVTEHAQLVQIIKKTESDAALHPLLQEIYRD
# Source text: (§4) A luciferase reporter gene was transfected to 3T3-L1 cells together with the ligand-binding domain of PPAR-alpha, PPAR-gamma or PPAR-delta fused to a yeast GAL4 DNA-binding domain.
# [5] = molecular target: T1, recombinant mouse PGR-2 protein; assay: Kinetics studies of PGR-2 catalyzed conversion; type: biochemical; conditions: order: 15-keto PGE2, then 15-keto PGF1α, 15-keto PGE1, 15-keto PGF2α
# Protocol: as §1, §2
# Unlike PGR/LTB4DH, PGR-2 used NADPH as a cofactor much more efficiently than NADH.
# [6] = test system: PPAR-gamma; assay: Luciferase reporter with PPAR-gamma ligand-binding domain fused to yeast GAL4 DNA-binding domain in 3T3-L1 cells; type: cell-based
# Source text: as §4
# [7] = test system: 3T3-L1 cells; assay: Protein expression of adipogenesis-specific, PPAR-gamma target genes in 3T3-L1 cells; type: cell-based, mouse; conditions: for IRS-1 protein expression: 3T3-L1 cells
# Source text: Also examined was the ability of 15-keto PGE2 to induce protein expression of adipogenesis-specific, PPAR-gamma target genes, i.e., IRS-1 and -2.
specific activity with PGR-2 (substrate specificity) [1],SMILES,endogenous PPAR activity (reporter gene) [2],other results
no specific activity was detected,CCCCC[C@H](O)/C=C/[C@@H]1[C@@H](CC(=O)CCCCC(=O)O)[C@@H](O)C[C@H]1O [6-keto PGF1α],–,–
no specific activity was detected,CCCCC[C@H](O)/C=C/[C@@H]1[C@@H](C/C=C\CCCC(=O)O)[C@@H](O)C[C@@H]1O [11b-PGF2α],–,–
no specific activity was detected,"CCCCCC(=O)CCC1C(=O)CC(O)C1C/C=C\CCCC(=O)O (stereo not shown) [13,14-dihydro-15-keto PGD2]",–,–
no specific activity was detected,"CCCCCC(=O)CC[C@H]1[C@H](O)CC(=O)[C@@H]1C/C=C\CCCC(=O)O [13,14-dihydro-15-keto PGE2]",failed to increase PPAR activity,–
no specific activity was detected,"CCCCCC(=O)CC[C@@H]1[C@@H](C/C=C\CCCC(=O)O)[C@@H](O)C[C@H]1O [13,14-dihydro-15-keto PGF2α]",failed to increase PPAR activity,–
reacted specifically with PGR-2,CCCCCC(=O)/C=C/[C@H]1[C@H](O)CC(=O)[C@@H]1CCCCCCC(=O)O [15-keto PGE1],–,–
–,CCCCCC(=O)/C=C/[C@H]1[C@H](O)CC(=O)[C@@H]1C/C=C\CCCC(=O)O [15-keto PGE2],enhanced endogenous PPAR activity significantly,"adipogenesis (aggregates of lipid droplets, oil-red O) [3]: effectively enhanced adipogenesis at a level similar to BRL49653; activation of PPAR-alpha (GAL4 fusion, luciferase reporter) [4]: to a lesser degree; efficiency of PGR-2 catalyzed conversion (rank order) [5]: most efficiently; activation of PPAR-gamma (GAL4 fusion, luciferase reporter) [6]: activated; IRS-1 protein expression [7]: did not increase; PPAR-gamma1 and PPAR-gamma2 protein expression ([7]; added with MIX, insulin and dexamethasone): significantly enhanced; expression of aP2, an adipocyte-specific marker ([7]; even in the absence of MIX): strongly induced; IRS-2 expression ([7]; in the presence of insulin and dexamethasone): enhanced the expression to a level similar to MIX"
reacted specifically with PGR-2,CCCCCC(=O)/C=C/[C@@H]1[C@@H](CCCCCCC(=O)O)[C@@H](O)C[C@H]1O [15-keto PGF1α],–,–
reacted specifically with PGR-2,CCCCCC(=O)/C=C/[C@@H]1[C@@H](C/C=C\CCCC(=O)O)[C@@H](O)C[C@H]1O [15-keto PGF2α],enhanced endogenous PPAR activity significantly,"activation of PPAR-alpha (GAL4 fusion, luciferase reporter) [4]: to a lesser degree; activation of PPAR-gamma (GAL4 fusion, luciferase reporter) [6]: activated"
–,"CC(C)Cn1c(=O)n(C)c(=O)c2[nH]cnc21 [MIX, methylisobutylxanthine]",–,IRS-1 protein expression [7]: induced IRS-1 expression
no specific activity was detected,CCCCC[C@H](O)/C=C/[C@@H]1[C@@H](C/C=C\CCCC(=O)O)[C@H](O)C[C@H]1O [PGF2β],–,–
no specific activity was detected,CCCCC/C=C\C[C@@H](O)/C=C/C=C/C=C\[C@@H](O)CCCC(=O)O [leukotriene B4],–,–
